According to PubChem BioAssay (NCI):
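Tested at 5 concentrations; 48 h exposure; 96-well plates; endpoints linearly interpolated, else capped at highest concentration. Here, GI50 denotes the concentration required for 50% inhibition of growth. The concentration for full growth arrest is given as TGI.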

Tests used:
Test in all cases: NCI anticancer screen, dose series, 48 h
HCT-15 colon = system: HCT-15 colon
A498 renal = system: A498 renal
SF-268 CNS = system: SF-268 CNS
U251 CNS = system: U251 CNS
LOX IMVI melanoma = system: LOX IMVI melanoma
HS 578T breast = system: HS 578T breast
NCI-H522 lung = system: NCI-H522 lung
OVCAR-5 ovarian = system: OVCAR-5 ovarian
OVCAR-3 ovarian = system: OVCAR-3 ovarian
DU-145 prostate = system: DU-145 prostate

SMILES | TGI (HCT-15 colon) | TGI (A498 renal) | TGI (SF-268 CNS) | TGI (U251 CNS) | TGI (LOX IMVI melanoma) | TGI (HS 578T breast) | TGI (NCI-H522 lung) | TGI (OVCAR-5 ovarian) | TGI (OVCAR-3 ovarian) | TGI (DU-145 prostate) | GI50 (HCT-15 colon) | GI50 (A498 renal) | GI50 (SF-268 CNS) | GI50 (U251 CNS) | GI50 (LOX IMVI melanoma) | GI50 (HS 578T breast) | GI50 (NCI-H522 lung) | GI50 (OVCAR-5 ovarian) | GI50 (OVCAR-3 ovarian) | GI50 (DU-145 prostate)
COc1ccc(-c2cc(=O)c3cc(OC)c(OC)cc3[nH]2)cc1OC | > 100 µM | > 100 µM | > 100 µM | > 100 µM | > 100 µM | > 100 µM | > 100 µM | > 100 µM | > 100 µM | > 100 µM |  |  |  |  |  |  |  |  |  | 
CCCSC1=N/C(=C\c2ccco2)C(=O)N1 | > 100 µM | > 100 µM | > 100 µM | > 100 µM | > 100 µM | > 100 µM | > 100 µM | > 100 µM | > 100 µM | > 100 µM |  |  |  |  |  |  |  |  |  | 
CCOC(=O)C(NC(=O)c1cccc(Cl)c1)(N1CCN(c2cc3c(cc2F)c(=O)c(C(=O)O)cn3CC)CC1)C(F)(F)F (stereo unspecified) | 38.2 µM | 51 µM | 35.3 µM | 20.9 µM | 48.7 µM | 44.8 µM | 16.4 µM | 33 µM | 38.2 µM | 88.3 µM |  |  |  |  |  |  |  |  |  | 
COc1ccc(Sc2ccccc2[N+](=O)[O-])cc1 | > 100 µM | > 100 µM | > 100 µM | 41.3 µM | > 100 µM |  |  | > 100 µM | 58.9 µM |  |  |  |  |  |  |  |  |  |  | 
NS(=O)(=O)c1cc2c(cc1Cl)NC(C(=O)NNC(=O)c1ccncc1)=NS2(=O)=O | > 100 µM |  | > 100 µM |  | > 100 µM |  | > 100 µM |  | > 100 µM |  |  |  |  |  |  |  |  |  |  | 
CCc1n[nH]c(=O)n1-c1ccncc1 | > 100 µM | > 100 µM | > 100 µM | > 100 µM | > 100 µM | > 100 µM | > 100 µM | > 100 µM | > 100 µM | > 100 µM |  |  |  |  |  |  |  |  |  | 
Cn1c(=O)c(C#N)c(O)c2cc3ccccc3nc21 | > 100 µM |  | > 100 µM | > 100 µM | > 100 µM |  |  |  |  |  |  |  |  |  |  |  |  |  |  | 
Cc1cc(NS(=O)(=O)c2ccc(NC(NC(=O)OC(C)C)(C(F)(F)F)C(F)(F)F)cc2)nc(C)n1 | > 100 µM | > 100 µM | > 100 µM | > 100 µM | > 100 µM | > 100 µM |  | > 100 µM | > 100 µM | > 100 µM |  |  |  |  |  |  |  |  |  | 
Cc1cc(N(CCCl)CCCl)ccc1/C=N\NC(=O)c1cccnc1 | > 100 µM | 2.92 µM | > 100 µM | > 100 µM | 99.4 µM | > 100 µM | 32.3 µM | 60 µM | 79.3 µM | 99 µM | 21.9 µM | 1.42 µM | 25.1 µM | 21.6 µM | 15.6 µM | 48.6 µM | 15.2 µM | 12 µM | 23.1 µM | 15.1 µM
COc1ccc(N=C(SSC(=Nc2ccc(OC)cc2)c2ccc([N+](=O)[O-])o2)c2ccc([N+](=O)[O-])o2)cc1 | 2.03 µM | 25.8 µM | 5.4 µM | 1.62 µM | 5.05 µM | 5.43 µM | 0.953 µM | 5.01 µM | 2.6 µM | 2.92 µM |  |  |  |  |  |  |  |  |  | 
C[C@@H](c1ccccc1)N(CC#N)[C@H]1CCC[C@]1(O)/C=C/c1ccc2c(c1)OCO2 | > 25 µM | 6.98 µM | > 25 µM | > 25 µM | > 25 µM | > 25 µM | > 25 µM | > 25 µM |  | > 25 µM |  |  |  |  |  |  |  |  |  | 
FC(F)(Sc1nc2ccccc2[nH]1)c1nc2ccccc2o1 | > 100 µM | > 100 µM | > 100 µM | > 100 µM |  | > 100 µM | 31.8 µM | > 100 µM | > 100 µM | > 100 µM |  |  |  |  |  |  |  |  |  | 
O=C1C[C@@]23CCC4(CC2=CCC[C@H]3O1)OCCO4 | > 100 µM | > 100 µM | > 100 µM | > 100 µM | > 100 µM | > 100 µM | > 100 µM | > 100 µM | > 100 µM | > 100 µM |  |  |  |  |  |  |  |  |  | 
CCCCCCCCCCCCCCCC(=O)OCC(COP(=O)(O)OCCNC(=O)CCSSc1ccccn1)OC(=O)CCCCCCCCCCCCCCC (stereo unspecified) | > 100 µM | > 100 µM | > 100 µM | > 100 µM |  | > 100 µM | > 100 µM | > 100 µM | > 100 µM | > 100 µM |  |  |  |  |  |  |  |  |  | 
CCOC(=O)C1(NC(=O)OC(C)(C)C)CCc2[nH]oc(=O)c2C1 (stereo unspecified) | > 100 µM | > 100 µM |  | > 100 µM | > 100 µM | > 100 µM | > 100 µM | > 100 µM | > 100 µM | > 100 µM |  |  |  |  |  |  |  |  |  | 
CC(C)S1=C2C(=O)CC(C)(C)CC2=Nc2ccccc21 (stereo unspecified) | > 100 µM | > 100 µM | > 100 µM | > 100 µM | > 100 µM | > 100 µM | > 100 µM | > 100 µM | > 100 µM | > 100 µM |  |  |  |  |  |  |  |  |  | 
Clc1cc2ncn(C3CCCO3)c2cc1Cl (stereo unspecified) | > 100 µM |  | > 100 µM | > 100 µM | > 100 µM | > 100 µM | > 100 µM | > 100 µM | > 100 µM | > 100 µM |  |  |  |  |  |  |  |  |  | 
Nc1cc(O)c2cc(N=Nc3ccc(N=Nc4ccc(N=Nc5ccc6cc(S(=O)(=O)O)cc(S(=O)(=O)O)c6c5)c5ccccc45)c4cc(S(=O)(=O)O)ccc34)c(S(=O)(=O)O)cc2c1 | > 100 µM | > 100 µM | > 100 µM | > 100 µM | > 100 µM |  | > 100 µM | > 100 µM | > 100 µM |  |  |  |  |  |  |  |  |  |  | 
COc1ccc(NC(=S)Nc2cccc(C)n2)cc1 | > 100 µM | > 100 µM | > 100 µM | > 100 µM | > 100 µM | > 100 µM |  |  |  | > 100 µM |  |  |  |  |  |  |  |  |  | 
CCN(CCCl)c1ccc(NC(=O)c2cc(C(=O)NCCN(C)C)cc(C(=O)Nc3ccc(N(CC)CCCl)cc3)c2)cc1 | > 100 µM | 43.1 µM | 61.2 µM | 22.1 µM | 12.8 µM | 12.4 µM | 11.4 µM | 87.1 µM |  | 39.2 µM |  |  |  |  |  |  |  |  |  | 
COC(=O)C1CCC(=S)N1C(C)=O (stereo unspecified) | > 100 µM | > 100 µM | > 100 µM | > 100 µM |  | > 100 µM | > 100 µM | > 100 µM | > 100 µM | > 100 µM |  |  |  |  |  |  |  |  |  | 
CSC(=NCCCN=C(NS(=O)(=O)c1ccc(Cl)cc1)SC)NS(=O)(=O)c1ccc(Cl)cc1 | > 100 µM | 73.1 µM | > 100 µM | > 100 µM | 70.6 µM |  |  | > 100 µM | 80 µM | > 100 µM |  |  |  |  |  |  |  |  |  | 
